According to patent US20260285853A1, “COMPOUNDS AND METHODS FOR MODULATING SPLICING” (REMIX THERAPEUTICS INC., priority 2023, published 2026):
Structures can show the parent of a compound that is named as a salt. Where two headings read alike, the source gives them in different places.

What was measured:
Format in all cases: cell-based
[1] = test system: HTT mRNA; test: Splicing RT-qPCR assay (THP), Table 2A
[2] = test system: MYB mRNA; test: Splicing RT-qPCR assay (THP), Table 2A
[3] = test system: MYB mRNA; test: Gene panel canonical junction qPCR assay, decrease in CJ mRNA, Table 3
Procedure, shortened: (§1)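 Eleven-point dose responses from 10 uM final, 24 h, DMSO ≤0.25%, in A673 or K562 cells. Relative quantification by 2^(−ΔΔCt) against housekeeper and vehicle was converted to percent response over fixed ΔCt windows and fitted to yield IC50.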

[4] = test system: HTT mRNA; test: as above
Procedure, shortened: as §1

[5] = test system: SH-SY5Y (human neuroblastoma) cells; test: Cell viability, Cell Titer Glo 2.0 assay; details: read-out: Viability SHSY5Y.3 GI50
Procedure, shortened: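 Following a 72 h incubation (37 °C, 5% CO2, 0.1% DMSO final), compound toxicity toward SH-SY5Y cells was quantified by CellTiter-Glo 2.0.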

[6] = Table 2A, THP, HTT alternative junction (AJ) mRNA, read-out: HTT AJ (AC50, increase in alternative junction mRNA)
[7] = Table 2A, THP, HTT canonical junction (CJ) mRNA, read-out: HTT CJ (IC50, decrease in canonical junction mRNA)
[8] = Table 2A, THP, MYB alternative junction (AJ) mRNA, read-out: MYB AJ (AC50, increase in alternative junction mRNA)
[9] = Table 2A, THP, MYB canonical junction (CJ) mRNA, read-out: MYB CJ (IC50, decrease in canonical junction mRNA)
[10] = decrease in CJ mRNA levels, canonical junction qPCR, gene panel
[11] = Table 2A (THP), AJ mRNA increase, read-out: HTT AJ (increase in alternative junction mRNA, AC50)
[12] = Table 2A (THP), CJ mRNA decrease, read-out: HTT CJ (decrease in canonical junction mRNA, IC50)
[13] = Table 2A (THP), AJ mRNA increase, read-out: MYB AJ (increase in alternative junction mRNA, AC50)
[14] = Table 2A (THP), CJ mRNA decrease, read-out: MYB CJ (decrease in canonical junction mRNA, IC50)
[15] = decrease in canonical junction (CJ) mRNA, gene panel qPCR, Table 3

SMILES	AC50 [1, 6]	IC50 [1, 7]	AC50 [2, 8]	IC50 [2, 9]	IC50 [3, 10]	IC50 [4, 10]	GI50 [5]	AC50 [1, 11]	IC50 [1, 12]	AC50 [2, 13]	IC50 [2, 14]	IC50 [3, 15]	IC50 [4, 15]
COc1nc2c(C(=O)Nc3cc(F)c4nn(C)cc4c3)ccc(N3C[C@@H](C)N[C@H](C)C3)c2s1 [Compound 719, 7-[(3R,5R)-3,5-dimethylpiperazin-1-yl]-N-(7-fluoro-2-methyl-indazol-5-yl)-2-methoxy-1,3-benzothiazole-4-carboxamide]	1000 to 10000 nM	1 to 10 µM	< 100 nM	< 100 nM	< 100 nM	1 to 10 µM	100 to 1000 nM	–	–	–	–	–	–
Cc1cn2cc(NC(=O)c3ccc(N4CCC(NC5CC5)CC4)c4cn(C)nc34)nc2c(CCN)n1 [Compound 753, N-[8-(2-aminoethyl)-6-methyl-imidazo[1,2-a]pyrazin-2-yl]-4-[4-(cyclopropylamino)-1-piperidyl]-2-methyl-indazole-7-carboxamide]	> 10000 nM	> 10 µM	> 10000 nM	> 10000 nM	> 10000 nM	> 10 µM	> 10000 nM	–	–	–	–	–	–
COc1c(NC(=O)c2c(F)cc(N3CCC(NC4CC4)CC3)c3nc(C)sc23)cn2cc(C)nc2c1F [Compound 663, 4-[4-(cyclopropylamino)-1-piperidyl]-6-fluoro-N-(8-fluoro-7-methoxy-2-methyl-imidazo[1,2-a]-pyridin-6-yl)-2-methyl-1,3-benzothiazole-7-carboxamide]	1000 to 10000 nM	1 to 10 µM	1000 to 10000 nM	1000 to 10000 nM	1000 to 10000 nM	1 to 10 µM	1000 to 10000 nM	–	–	–	–	–	–
COc1nc2c(C(=O)Nc3ccc4nn(C)cc4c3)ccc(N3C[C@H](C)N[C@@H](C)C3)c2s1 [Compound 800, 7-[(3S,5S)-3,5-dimethylpiperazin-1-yl]-2-methoxy-N-(2-methylindazol-5-yl)-1,3-benzothiazole-4-carboxamide]	100 to 1000 nM	0.1 to 1 µM	< 100 nM	< 100 nM	< 100 nM	0.1 to 1 µM	< 100 nM	–	–	–	–	–	–
COc1cc2c(N3CCC(NC4CC4)CC3)ccc(C(=O)Nc3cn4cc(C)nc4c(OC)n3)n2n1 [Compound 634, 4-[4-(cyclopropyl-amino)-1-piperidyl]-2-methoxy-N-(8-methoxy-2-methylimidazo[1,2-a]pyrazin-6-yl)-pyrazolo[1,5-a]pyridine-7-carboxamide]	< 100 nM	< 0.1 µM	< 100 nM	< 100 nM	< 100 nM	< 0.1 µM	100 to 1000 nM	–	–	–	–	–	–
Cc1c2cc(NC(=O)c3ccc(N4CCC(NC5CC5)CC4)c4cn(C)nc34)cc(CNS(C)(=O)=O)c2nn1C [Compound 869]	> 10000 nM	> 10 µM	> 10000 nM	> 10000 nM	> 10000 nM	> 10 µM	> 10000 nM	–	–	–	–	–	–
COc1nc2c(C(=O)Nc3cn4cc(C)nc(C)c4n3)ccc(N3C[C@H](C)N[C@@H](C)C3)c2s1 [Compound 711, N-(6,8-dimethylimidazo[1,2-a]pyrazin-2-yl)-7-[(3S,5S)-3,5-dimethylpiperazin-1-yl]-2-methoxy-1,3-benzothiazole-4-carboxamide]	> 10000 nM	> 10 µM	1000 to 10000 nM	1000 to 10000 nM	1000 to 10000 nM	> 10 µM	1000 to 10000 nM	–	–	–	–	–	–
COc1cc2nn(C)cc2cc1NC(=O)c1ccc(N2CCC(NC3CC3)CC2)c2c(F)n(C)nc12 [Compound 477]	–	–	–	–	–	–	100 to 1000 nM	100 to 1000 nM	0.1 to 1 µM	100 to 1000 nM	100 to 1000 nM	100 to 1000 nM	0.1 to 1 µM
Cn1cc2cc(NC(=O)c3ccc(N4CCC(N(C(=O)OC(C)(C)C)C5CC5)CC4)c4cn(C)nc34)cc(CN)c2n1 [Compound 815]	> 10000 nM	> 10 µM	> 10000 nM	> 10000 nM	> 10000 nM	> 10 µM	1000 to 10000 nM	–	–	–	–	–	–
COc1nc2c(N3CCC(NC4CC4)CC3)ccc(C(=O)Nc3cn4cc(C)nc(C)c4n3)c2o1 [Compound 680, 4-(4-(cyclopropylamino)-piperidin-1-yl)-N-(6,8-dimethylimidazo-[1,2-a]-pyrazin-2-yl)-2-methoxy-benzo[d]-oxazole-7-carboxamide]	> 10000 nM	> 10 µM	1000 to 10000 nM	1000 to 10000 nM	1000 to 10000 nM	> 10 µM	> 10000 nM	–	–	–	–	–	–
CNCC1CN(c2ccc(C(=O)Nc3cc(F)c4nn(C)cc4c3)c3nc(OC)sc23)C1 [Compound 750]	100 to 1000 nM	< 0.1 µM	< 100 nM	< 100 nM	< 100 nM	< 0.1 µM	100 to 1000 nM	–	–	–	–	–	–
COc1cc2nn(C)cc2cc1NC(=O)c1ccc(NC2CCCNCC2)c2cn(C)nc12 (stereo not drawn) [Compound 547]	–	–	–	–	–	–	> 10000 nM	1000 to 10000 nM	1 to 10 µM	1000 to 10000 nM	1000 to 10000 nM	1000 to 10000 nM	1 to 10 µM
COc1cn2nc(C)nc2cc1NC(=O)c1ccc(N2CCC(NC3CC3)CC2)c2cn(C)nc12 [Compound 573, 4-[4-(cyclopropylamino)-1-piperidyl]-N-(6-methoxy-2-methyl-[1,2,4]triazolo-[1,5-a]-pyridin-7-yl)-2-methyl-indazole-7-carboxamide]	–	–	–	–	–	–	> 10000 nM	> 10000 nM	> 10 µM	> 10000 nM	> 10000 nM	> 10000 nM	> 10 µM
COc1cc2nn(C)cc2cc1NC(=O)c1ccc(N2CCC(NCC3CC3)CC2)c2cn(C)nc12 [Compound 577]	–	–	–	–	–	–	1000 to 10000 nM	1000 to 10000 nM	1 to 10 µM	< 100 nM	100 to 1000 nM	100 to 1000 nM	1 to 10 µM
Cc1cn2c(N3CCC(NC4CC4)CC3)ccc(C(=O)Nc3cc(CO)c4nn(C)cc4c3)c2n1 [Compound 859]	1000 to 10000 nM	1 to 10 µM	100 to 1000 nM	100 to 1000 nM	100 to 1000 nM	1 to 10 µM	1000 to 10000 nM	–	–	–	–	–	–
CCNC1CCN(c2cc(F)c(C(=O)Nc3cn4cc(C)nc4c(F)c3OCC)c3nn(C)cc23)CC1 [Compound 343, N-(7-ethoxy-8-fluoro-2-methylimidazo [1,2-a]pyridin-6-yl)-4-(4-(ethylamino)piperidin-1-yl)-6-fluoro-2-methyl-2H-indazole-7-carboxamide hydrochloride]	–	–	–	–	–	–	< 100 nM	< 100 nM	< 0.1 µM	< 100 nM	< 100 nM	< 100 nM	< 0.1 µM
COc1nc2c(C(=O)Nc3cc(F)c4nn(C)cc4c3)ccc(N3CCN[C@@H](C)C3)c2s1 [Compound 766]	< 100 nM	< 0.1 µM	< 100 nM	< 100 nM	< 100 nM	< 0.1 µM	< 100 nM	–	–	–	–	–	–
C[C@H]1CN(c2ccc(C(=O)Nc3cc(F)c4nn(C)cc4c3)c3sc(OCc4ccnn4C)nc23)C[C@H](C)N1 [Compound 796, 4-[(3S,5S)-3,5-dimethylpiperazin-1-yl]-N-(7-fluoro-2-methyl-indazol-5-yl)-2-[(2-methylpyrazol-3-yl)methoxy]-1,3-benzothiazole-7-carboxamide]	> 10000 nM	> 10 µM	> 10000 nM	> 10000 nM	> 10000 nM	> 10 µM	1000 to 10000 nM	–	–	–	–	–	–
CCNC1CCN(c2ccc(C(=O)Nc3cn(C)c(=O)cc3OC)c3nn(C)cc23)CC1 [Compound 560, 4-[4-(ethylamino)-1-piperidyl]-N-(4-methoxy-1-methyl-6-oxo-3-pyridyl)-2-methyl-indazole-7-carboxamide]	–	–	–	–	–	–	> 10000 nM	> 10000 nM	> 10 µM	> 10000 nM	1000 to 10000 nM	1000 to 10000 nM	> 10 µM
CCNC1CCN(c2ccc(C(=O)Nc3cc(OC)c4nc(C)sc4c3)c3nn(C)cc23)CC1 [Compound 385, 4-[4-(ethylamino)-1-piperidyl]-N-(4-methoxy-2-methyl-1,3-benzothiazol-6-yl)-2-methyl-indazole-7-carboxamide 2,2,2-trifluoroacetate]	–	–	–	–	–	–	1000 to 10000 nM	1000 to 10000 nM	> 10 µM	100 to 1000 nM	> 10000 nM	> 10000 nM	> 10 µM
Cc1cc2sc(NC(=O)c3ccc(N4CCC(NC5CC5)CC4)c4cn(C)nc34)cc2c(C)n1 [Compound 559, 4-[4-(cyclopropylamino)-1-piperidyl]-N-(4,6-dimethyl-thieno[3,2-c]-pyridin-2-yl)-2-methyl-indazole-7-carboxamide]	–	–	–	–	–	–	1000 to 10000 nM	1000 to 10000 nM	1 to 10 µM	1000 to 10000 nM	1000 to 10000 nM	1000 to 10000 nM	1 to 10 µM
